One data set deals with T1, ZIKV RdRp (Zika virus, UniProt A0A024B7W1).
T1 construct: we expressed and purified ZIKV RdRp domain; made in house; host or cells: Escherichia coli BL21 (DE3)
Nature of the data set: In vitro ZIKV RdRp activity assay (Syto9 fluorescence). To be noted: purified ZIKV RdRp domain, poly-U/ATP, 30°C 60 min; read-out: EC50, inhibition of ZIKV RdRp activity. The format is biochemical. From the text:
Through molecular docking experiments and cell thermal shift analysis, we supose that 4w may have a direct interaction with ZIKV RdRp. In order to verify whether the binding of 4w and NS5 protein is directly related to ZIKV RdRp, we expressed and purified ZIKV RdRp domain, and detected its activity according to the method described in the literature ([Qian et al., 2022]) (Figure 6A). […] Heparin is a protein chelating agent. […] Heparin was selected as the positive control drug in this experiment, and the syto9-only group was used as the negative control, the same volume of DMSO as a positive control.
The ZIKV RdRp was expressed and purified, and the protein expression and purification method was as described before ([Xu et al., 2017]; [Sáez-Álvarez et al., 2019]). 4w was diluted with protein dialysis buffer to 1,500 nM and stored for later use. In vitro RdRp polymerase activity assay was described previously ([Qian et al., 2022]), 1,500 ng of purified RdRp protein, gradient diluted 4w and positive control drug 5 μM, 2 mg/ml Poly-U, 20mM ATP, 1M Tris-HCl, 100 mg/ml BSA, 100mM MnCl2 was added to a 96-well PCR plate. After mixing, the reaction was performed at 30°C in the dark for 60 min. […] RdRp protein activity was detected on a real-time fluorescence quantitative PCR instrument.

Another data set deals with ZIKV. Nature of the data set: Plaque assay, anti-ZIKV activity in Vero cells. Format: cell-based, Zika virus.
The subject of the next data set is ZIKV RNA. Nature of the data set: qRT-PCR viral load in supernatant of ZIKV-infected Huh7 cells. Particulars: Zika virus, Huh-7, read-out: EC50, inhibition of ZIKV RNA replication. Format: cell-based. From the text: In order to re-verify the inhibitory effect of 4w on ZIKV at the molecular level, we used ZIKV to infect cell lines of different origins (A549, Vero, Huh7 cells) and then treated with 4w in a concentration gradient. The change of viral load in the supernatant of cells after treatment was detected by qRT-PCR method.
Cells were infected with ZIKV SZ-WIV01 and then treated with 4w. The viral load in the supernatant was detected by Quantitative real-time polymerase chain reaction (qRT-PCR) at in different time periods after infection. Then the RNA from culture supernatant was extracted using the EasyPure ® Viral DNA/RNA Kit (TransGen Biotech, China) following the manufacturer’s instructions. Intracellular RNA extraction was according to trizol method. A one-step qRT-PCR kit RNA-direct™ Realtime PCR Master Mix (TOYOBO, Japan) and TaqMan probe were used to quantify the viral RNA produced. The primers (NS5 ZIKV 1086F: 5′-CCGCTGCCCAACACAAG-3′ and NS5 ZIKV 1086R: 3′-[…] C-5′) and probe (5′-FAM-[…]-TAMRA -3′) were used for amplification of the ZIKV NS5 region. A standard curve of the serial dilutions was used to quantify the viral RNA yield.
The 50% effective concentration (EC50) and 50% cytotoxic concentration (CC50) of the compound were calculated according to the Reed and Muench method, inhibition rate of ZIKV RNA yield- [(1-drug treatment/positive control) × 100]. […]
On the technique in general: Quantitative PCR measures a nucleic acid by following its amplification.

For the next data set, the system named is ZIKV E protein. Nature of the data set: Western blot of ZIKV E protein in infected Vero cells. To be noted: 12.5 μM, 48 h. The format is cell-based, Zika virus. From the text: ZIKV E protein is one of the most important structural proteins of ZIKV, which plays an important role in the correct assembly of the virus and evasion of the host’s innate immunity ([Jaimipuk et al., 2022]). We have verified that 4w has a significant inhibitory effect on ZIKV-infected cell lines from different sources at the molecular level, but it is unknown whether it has the same antiviral effect at the protein level. Therefore, in order to explore the inhibitory effect of 4w on ZIKV protein level, we added serially diluted 4w to ZIKV-infected Vero cells for 48 h, collected the total protein for WB experiments, and then detected the effect of 4w on ZIKV E and NS5 protein. At the same time, the inhibitory effect of 4w on ZIKV E protein was verified again by immunofluorescence experiment.
Vero cells were infected with ZIKV (MOI = 1) at 37°C for 2 h. Next, the different amounts of 4w were added to continue culturing for 48 h to extract the total protein in the cells. The total protein was separated in sodium dodecyl sulfate polyacrylamide gel electrophoresis (SDS-PAGE). […] The antibody signal was recorded and quantified using the Tanon-5200 Multi Imaging System.
Background: A western blot detects proteins with antibodies after separation by electrophoresis.

For data set [1] the following is noted: Figure 3; ref Shen (2015); cited from earlier work.
Data set [2] is described as follows: MTT cytotoxicity assay in A549 cells. The format is cell-based. Particulars: human. The procedure: MTT assay was used to detect the toxicity of the compound. Cells were seeded in 96-well plates and cultured overnight. Compounds with different concentrations were added and incubated for 96 h. Then, 20 μl of 5 mg/ml MTT (Sigma-Aldrich, United States) solution was added to each well and kept at 37°C for 4 h. Subsequently, 100 μl of 12% SDS-50% DMF (Sigma-Aldrich, United States) solution was added and incubated overnight at 37°C. After the crystalline formamidine was completely dissolved, the optical density (OD) value was measured using a microplate reader (BioTek, United States) with a wavelength of 570 nm and a reference wavelength of 630 nm.
The 50% effective concentration (EC50) and 50% cytotoxic concentration (CC50) of the compound were calculated according to the Reed and Muench method, inhibition rate of ZIKV RNA yield- [(1-drug treatment/positive control) × 100]. The data and graphs were processed using GraphPad Prism8 software, expressed as mean ± standard deviation (Mean ± SD), comparison between groups using ANOVA, p < 0.05 was considered statistically significant.

T1 sequence (A0A024B7W1 2793-3423): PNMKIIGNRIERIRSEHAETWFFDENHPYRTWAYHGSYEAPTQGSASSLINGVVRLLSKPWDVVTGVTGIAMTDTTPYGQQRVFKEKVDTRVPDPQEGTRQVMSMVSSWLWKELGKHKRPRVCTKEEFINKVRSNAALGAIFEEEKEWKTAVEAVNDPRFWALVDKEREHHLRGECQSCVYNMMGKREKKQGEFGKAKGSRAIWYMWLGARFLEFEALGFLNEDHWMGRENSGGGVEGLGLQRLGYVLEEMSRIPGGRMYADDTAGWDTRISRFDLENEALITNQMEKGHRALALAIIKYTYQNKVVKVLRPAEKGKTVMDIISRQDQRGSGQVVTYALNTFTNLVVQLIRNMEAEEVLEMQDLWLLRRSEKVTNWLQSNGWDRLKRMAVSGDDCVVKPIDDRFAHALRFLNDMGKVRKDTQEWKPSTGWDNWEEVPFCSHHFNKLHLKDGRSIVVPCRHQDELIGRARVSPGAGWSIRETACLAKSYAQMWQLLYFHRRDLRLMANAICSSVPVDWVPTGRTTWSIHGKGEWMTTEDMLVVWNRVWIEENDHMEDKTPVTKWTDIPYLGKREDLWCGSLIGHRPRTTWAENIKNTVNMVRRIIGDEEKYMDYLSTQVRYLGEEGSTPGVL

Broadly, the EC50 is the concentration giving half of the maximal effect. With `CCc1c(C2CCCCC2)nc(SCC(=O)Nc2cc(F)cc(F)c2)[nH]c1=O` [Compound 4w, 2-{[4-cyclohexyl-5-ethyl-6-oxo-1,6-dihydropyrimidin-2-yl]thio}-N-(3,5-difluorophenyl)acetamide], the EC50 at ZIKV RdRp came to 11.4 ± 0.51 µM; with ZIKV (Zika virus, plaque assay, independently in triplicate, read-out: EC50 (anti-ZIKV activity, plaque formation)), 7.65 ± 0.31 µM; with ZIKV RNA it was 6.76 ± 0.52 µM. Moreover, in the data set with ZIKV, the “SI (selectivity index, CC50/EC50 ratio)” value was >26. Further, the “inhibition of ZIKV E protein expression (WB)” value in the data set on ZIKV E protein was “significantly inhibit”. Also, the CC50 in data set [1] is > 10 µM. In data set [2], the CC50 at 96 h is > 200 µM.
